Where two headings read alike, the source gives them in different places.
Tests used:
[1] = target: T1, ScSLAC (small laccase, SLAC) (Streptomyces coelicolor, UniProt Q9XAL8); assay: spectrophotometric oxidation, […] nm, Michaelis-Menten or substrate inhibition fit; assay type: biochemical; conditions: read-out: DMP; pH 8.0, 42 °C; 0.25-15 mM substrate
T1 sequence (Q9XAL8 34-343): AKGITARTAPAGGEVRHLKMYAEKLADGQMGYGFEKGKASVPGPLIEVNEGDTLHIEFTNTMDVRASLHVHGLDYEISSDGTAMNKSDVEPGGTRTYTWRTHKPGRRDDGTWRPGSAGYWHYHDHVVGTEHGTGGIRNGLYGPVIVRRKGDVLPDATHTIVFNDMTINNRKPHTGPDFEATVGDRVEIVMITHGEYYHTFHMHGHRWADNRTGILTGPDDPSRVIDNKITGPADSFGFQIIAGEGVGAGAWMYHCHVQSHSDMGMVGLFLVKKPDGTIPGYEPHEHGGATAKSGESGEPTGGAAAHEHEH

[2] = target: T1, ScSLAC (small laccase, SLAC); assay: as above; conditions: read-out: Pyrogallol; pH 8.5, 42 °C; 0.025-1 mM substrate

Compound | Km [1] | Km [2]
COc1cccc(OC)c1O [DMP, 2,6-dimethoxyphenol] | 1100 ± 60 µM | 
Oc1cccc(O)c1O [Pyrogallol] |  | 200 ± 60 µM

Source: PMC8867573 (ACS Omega, 2022)
